Data on twelve molecules can be found in patent US7163952B2, “Azole compound and medicinal use thereof” (Japan Tobacco Inc., priority 2001, dated 2007).

Data set [1] deals with T1, recombinant human protein tyrosine phosphatase 1B (Homo sapiens, UniProt P18031).
T1 construct: purchased UBI
T1 sequence (P18031 1-435): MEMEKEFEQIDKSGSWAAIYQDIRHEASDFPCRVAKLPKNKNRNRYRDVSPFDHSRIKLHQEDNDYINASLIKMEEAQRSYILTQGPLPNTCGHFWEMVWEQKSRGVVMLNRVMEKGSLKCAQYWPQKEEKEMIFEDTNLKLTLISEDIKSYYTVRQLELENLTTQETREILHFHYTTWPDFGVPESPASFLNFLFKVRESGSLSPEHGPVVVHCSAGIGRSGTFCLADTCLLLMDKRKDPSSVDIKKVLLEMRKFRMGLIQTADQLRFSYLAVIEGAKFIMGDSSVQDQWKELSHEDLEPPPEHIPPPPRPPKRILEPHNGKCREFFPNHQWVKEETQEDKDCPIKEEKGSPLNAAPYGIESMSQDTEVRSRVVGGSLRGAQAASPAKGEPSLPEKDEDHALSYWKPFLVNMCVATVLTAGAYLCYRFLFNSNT
Put plainly: Protein tyrosine phosphatase 1B inhibitory action (malachite green, phosphorylated insulin receptor peptide substrate). Format: biochemical. To be noted: recombinant human PTP1B, 60 min room temperature, absorbance at 650 nm. The method, then: Preparation of Assay Buffer:
50 mM Tris-HCl buffer (pH 7.5), and 50 mM NaCl and 3 mM dithiothreitol (DTT) were prepared.
Respective 10 mM DMSO solutions of 0.1, 0.3, 1, 3 and 10 μM test compounds were diluted with the above-mentioned assay buffer so that the final dimethyl sulfoxide (DMSO) concentration would be not more than 1%. As a control, an assay buffer was used.
Preparation of Substrate:
A synthetic peptide consisting of 12 amino acids corresponding to 1142nd–1153rd of insulin receptor sequence, wherein three tyrosines therein had been phosphorylated, was diluted with the above-mentioned assay buffer to 80 μM.
A recombinant human protein tyrosine phosphatase 1B (manufactured by UBI) was diluted with the above-mentioned assay buffer (1.2 ng/25 μl).
A sample (10 μl) and a substrate (25 μl) prepared as mentioned above were successively added to a 96 well plate, and an enzyme (25 μl) prepared as mentioned above was added and mixed. After incubation at room temperature for 60 min., malachite green (120 μl, Biomol), which is a phosphorus color fixing agent, was added, and the mixture was further incubated at room temperature for 20 min. to allow color development. The absorbance at 650 nm was measured on a plate reader, and the protein tyrosine phosphatase 1B inhibitory action of the test compound was evaluated.

Data set [2] deals with male ob/ob mice. Put plainly: Hypoglycemic action in ob/ob mice, oral administration. Format: in vivo. The following applies: Mus musculus, fasting, 3 hr after administration, relative to control group, read-out: Decrease in blood glucose level (%) 3 hr; for inhibition in vivo at 0.3 mg/kg: dose 0.3 mg/kg oral; for inhibition in vivo at 1 mg/kg: dose 1 mg/kg oral; for inhibition in vivo at 3 mg/kg: dose 3 mg/kg oral. Here is the method: A 0.5% methyl cellulose suspension of the test compound was orally administered to male ob/ob mice (6 to 9 weeks old) grouped based on blood glucose level. A 0.5% methyl cellulose solution alone was administered to a control group.
The blood was drawn from the orbital vein with anesthesia at 3 hours after the administration. The blood was drawn under fasting by removing the feed immediately before test compound administration. The blood thus drawn was separated by centrifugation and the blood glucose level was measured from the obtained plasma according to the hexokinase method (glucose measure kit). For evaluation, decrease in the blood glucose level of the test compound administration group relative to the control group was shown in percentage.

For data set [3], the system named is db/db mice. Description: Blood lipid lowering action in db/db mice, oral administration once a day for 14 days. Format: in vivo. The following applies: non-fasting; for Plasma triglyceride concentration (mg/dL) Day 7: Day 7 (control group 508); for Plasma triglyceride concentration (mg/dL) Day 14: Day 14 (control group 622). Here is the method:
A 0.5% methyl cellulose suspension of the test compound was orally administered to 7-week-old db/db mice once a day for 14 days. The 0.5% methyl cellulose solution alone was administered to the control group.
The blood was drawn from the orbital vein with light ether anesthesia before test compound administration on day 7 day 14 under non-fasting condition. The blood thus drawn was separated by centrifugation and the plasma triglyceride concentration was measured from the obtained plasma according to the enzyme method (triglyceride measure kit).

Consider `CN(Cc1ccc(C2CCC(C)(C)CC2)cc1)c1ccc(-c2csc(N(C)Cc3ccc(C(=O)O)cc3)n2)cc1` [Example 215, 4-((N-(4-(4-(N-(4-(4,4-dimethylcyclohexyl)benzyl)-N-methylamino)phenyl)-2-thiazolyl)-N-methylamino)methyl)benzoic acid], for which the melting point was 155 to 158 °C. In data set [1], the IC50 came out at 0.11 µM. For the same molecule, in data set [2], the inhibition in vivo at 0.3 mg/kg was -9%, the inhibition in vivo at 1 mg/kg turned out to be 32% and the inhibition in vivo at 3 mg/kg worked out at 39%.
Regarding `CN(Cc1ccc(C2CCCCC2)cc1)c1ccc(-c2csc(N(C)Cc3ccc(C(=O)O)cc3)n2)cc1` [Example 1, 4-(N-(4-(4-(N-(4-cyclohexylbenzyl)-N-methylamino)phenyl)-2-thiazolyl)-N-methylaminomethyl)benzoic acid], the IC50 in data set [1] is 0.32 µM. In data set [2], the inhibition in vivo at 0.3 mg/kg was determined as 35%, the inhibition in vivo at 1 mg/kg was 35% and the inhibition in vivo at 3 mg/kg came to 35%.
The molecule `CC1CCC(c2ccc(CN(C)c3ccc(-c4csc(N(C)Cc5ccc(C(=O)O)cc5)n4)cc3)cc2)CC1` (centres unmarked) [Example 218, 4-((N-methyl-N-(4-(4-(N-methyl-N-(4-(4-methylcyclohexyl)benzyl)amino)phenyl)-2-thiazolyl)amino)methyl)benzoic acid] displayed a melting point of 185 to 191 °C. In addition, the IC50 in data set [1] worked out at 0.15 µM. In addition, in data set [2], the inhibition in vivo at 3 mg/kg turned out to be 27%.
`CN(Cc1ccc(C2CCCCC2)cc1)c1ccc(-c2csc(N(C)Cc3ccc(C(=O)[O-])cc3)n2)cc1.[Na+]` [Example 102, sodium 4-(N-(4-(4-(N-(4-cyclohexylbenzyl)-N-methylamino)phenyl)-2-thiazolyl)-N-methylaminomethyl)benzoate] registered a melting point of 240 °C. For the same molecule, in data set [3] (dose 10 mg/kg oral once a day), the “Plasma triglyceride concentration (mg/dL) Day 7” value worked out at 277 mg/dL and the “Plasma triglyceride concentration (mg/dL) Day 14” value came out at 349 mg/dL. For the same molecule, in data set [3] (dose 30 mg/kg oral once a day), the “Plasma triglyceride concentration (mg/dL) Day 7” value is reported as 250 mg/dL and the “Plasma triglyceride concentration (mg/dL) Day 14” value is recorded as 307 mg/dL.
`CN(Cc1ccc(C2CCC(F)(F)CC2)cc1)c1ccc(-c2csc(N(C)Cc3ccc(C(=O)O)cc3)n2)cc1` [Example 209, 4-((N-(4-(4-(N-(4-(4,4-difluorocyclohexyl)benzyl)-N-methylamino)phenyl)-2-thiazolyl)-N-methylamino)methyl)benzoic acid] displayed a melting point of 190 to 193 °C. Also, the IC50 in data set [1] was 0.49 µM. Further, the inhibition in vivo at 3 mg/kg in data set [2] came to 20%.
Taken in the same sequence, the figures for `O=C(O)c1ccc(CN(CC2CCCCC2)c2nc(-c3nc4ccc(OCc5ccc(Cl)c(Cl)c5)cc4o3)cs2)cc1` [Example 217, 4-((N-cyclohexylmethyl-N-(4-(6-(3,4-dichlorobenzyloxy)-2-benzooxazolyl)-2-thiazolyl)amino)methyl)benzoic acid] were 188 to 190 °C, 0.26 µM and 20%.
Turning to `CCCC(CCC)c1ccc(CN(C)c2ccc(-c3csc(N(C)Cc4ccc(C(=O)O)cc4)n3)cc2)cc1` [Example 230, 4-((N-methyl-N-(4-(4-(N-methyl-N-(4-(1-propylbutyl)benzyl)amino)phenyl)-2-thiazolyl)amino)methyl)benzoic acid], the melting point was 114 to 115 °C. For the same molecule, the IC50 in data set [1] was 0.15 µM. Further, the inhibition in vivo at 3 mg/kg in data set [2] is 40%.
Taken in the same sequence, the figures for `CN(Cc1ccc(C2CCC(Cl)(Cl)CC2)cc1)c1ccc(-c2csc(N(C)Cc3ccc(C(=O)O)cc3)n2)cc1` [Example 208, 4-((N-(4-(4-(N-(4-(4,4-dichlorocyclohexyl)benzyl)-N-methylamino)phenyl)-2-thiazolyl)-N-methylamino)methyl)benzoic acid] were 210 to 213 °C, 0.11 µM and 21%.
Taken in the same sequence, the figures for `CN(Cc1ccc([C@H]2CC[C@H](O)CC2)cc1)c1ccc(-c2csc(N(C)Cc3ccc(C(=O)O)cc3)n2)cc1` [Example 196, trans-4-((N-(4-(4-(N-(4-(4-hydroxycyclohexyl)benzyl)-N-methylamino)phenyl)-2-thiazolyl)-N-methylamino)methyl)benzoic acid] were 194 to 196 °C, 0.83 µM and -8%.
With `CN(Cc1ccc(C(=O)O)cc1)c1nc(-c2ccc(OCc3ccc(C4CCCCC4)cc3)cc2)cs1` [Example 2, potassium 4-(N-(4-(4-(4-cyclohexylbenzyloxy)phenyl)-2-thiazolyl)-N-methylaminomethyl)benzoate], in data set [1], the IC50 amounted to 0.22 µM. Further, in data set [2], the inhibition in vivo at 1 mg/kg was 37% and the inhibition in vivo at 3 mg/kg stood at 47%.
In the case of `CN(Cc1ccc(C(=O)O)cc1)c1nc(-c2ccc(NCc3ccc(C4CCCCC4)cc3)cc2)cs1` [Example 115, 4-((N-(4-(4-(4-cyclohexylbenzylamino)phenyl)-2-thiazolyl)-N-methylamino)methyl)benzoic acid], the melting point is 184 °C (dec.). Besides, the IC50 in data set [1] turned out to be 0.48 µM. In data set [2], the inhibition in vivo at 3 mg/kg is 34%.
In the case of `CN(c1ccc(C(=O)O)cc1)c1nc(-c2ccc(NCc3ccc(C4CCCCC4)cc3)cc2)cs1` [Example 3, 4-(N-(4-(4-(4-cyclohexylbenzylamino)phenyl)-2-thiazolyl)-N-methylamino)benzoic acid], the IC50 in data set [1] turned out to be 0.5 µM. In addition, in data set [2], the inhibition in vivo at 1 mg/kg was determined as 27% and the inhibition in vivo at 3 mg/kg was found to be 35%.

As usually defined, the IC50 is the concentration at which inhibition is half-maximal. The term melting point denotes the temperature of the solid-liquid transition.
